Experimental data reported in US10993923B2, “Method for ameliorating fibrosis using 1-[4-chloro-3-(trifluoromethyl)phenyl]-3-[3-(4-cyanophenoxy)phenyl]urea” (priority 2016, dated 2021).

Test system: TGF-β, PDGFR and STAT3 pathways in LX2 cells
Experiment: Western blot of signalling proteins in LX2 cells
Format: cell-based, human
Protocol: Rat immortal hepatic stellate cell line HSC-T6 and LX2 human hepatic stellate cell line were provided by Professor Scott Friedman of Mount Sinai Hospital in New York, USA. The primary mouse HSCs were obtained via the way: after intubating the hepatic portal vein of the mouse, the cells were perfused with […] and ethylene glycol bis-aminoethyl ether tetraacetic acid (EGTA) buffer in situ, and then collagenase was injected to digest the liver tissue, and then the primary mouse HSCs were isolated by Histodnz gradient. HSC-T6 cells were cultured in Waymouth medium; LX2 cells and primary mouse HSCs were cultured in Dulbecco's Modified Eagle Medium (DMEM) containing 10% fetal bovine serum (FBS), 100 μg/mL penicillin, 100 μg/mL streptomycin, and 2 mM L-glutamine HSC-T6 cells, LX2 cells and primary mouse HSCs were cultured in a humidified incubator containing 5% carbon dioxide at 37° C. After adding the FBS, the resting HSC is started. […] Whole-cell extracts were obtained via RIPA buffer (Millipore, USA) and protein concentrations were quantified via a BCA protein assay kit (Thermo Fisher Scientific, USA). 20 or 25 μg of protein was added to various percentages of SDS-sodium dodecyl sulfate-acrylamide gel and blotted onto a polyvinylidene fluoride (PVDF) membrane. […] Proteins were detected by Immobilon Western Chemiluminescent HRP substrate (Millipore, USA) or ECL detection system (UVP Corporation, USA). […] Plasmids encoding the human wild-type SHP-1 and SHP-1 mutant, in which the N-SH2 domain was […] was changed into an […]) were cloned into the pCMV6-entry vector with myc-tag. These mutants were confirmed through DNA sequencing. […] (Chicago, Ill., USA).

N#Cc1ccc(Oc2cccc(NC(=O)Nc3ccc(Cl)c(C(F)(F)F)c3)c2)cc1 [1-[4-chloro-3-(trifluoromethyl)phenyl]-3-[3-(4-cyanophenoxy)phenyl]urea]
p-STAT3, ectopic expression of the vector control and wild-type SHP-1 (5 μM, 24 hours, FIG. 17D, 17E): downregulated
p-PDGFR and p-Akt in the PDGFR pathway (10 μM for 4 hours, then PDGF-BB 100 ng/mL 10 minutes, FIG. 14E): downregulated
p-Smad2 and p-Smad3 of the TGF-β pathway (10 μM for 4 hours, then TGF-β1 10 ng/mL 20 minutes, FIG. 14D): downregulated
downregulation of p-STAT3 and cyclin D1, compared with sorafenib (FIG. 15A): more significant dose-escalation effects on the downregulation
